Source: US7510825B2, “Kits and methods for detection of apoptotic cells” (NST NeuroSurvival Technologies Ltd, priority 2000, dated 2009)

Tests used:
[1] = test system: injured renal tissues (outer medulla); assay: Radiocontrast-induced distal tubular necrosis model, detection by DDC; format: in vivo, rat; details: 24 h after radiocontrast insult, DDC i.v. 2 hours
Procedure: A. Administration of DDC in-vivo: Injection of 200 μl of DDC intravenously. Following 1-2 hours, animal is sacrificed, and the desired organ is placed in a test tube or on a small plate, suitable for liquid nitrogen freezing. The plate is then covered with an aluminum foil, and transferred to liquid nitrogen. Following 5-30 minutes the specimen is being frozen to −80° C. and kept at −80° C. for at least 16 hr. B. Analysis of the Specimen: • a. Whole organ imaging Ex-vivo whole organ fluorescence imaging may be carried out on freshly excised specimen, that can be analyzed under a stereomicroscope (such as Leica MZ FL III, Leica Switzerland). DDC may be visualized using 360cx and >420cm nm filter set. Emitted fluorescence can be imaged using appropriate camera and software, such as a Leica DC 300F Distal camera and images can be processed and analyzed by Leica QWin Lite software. • b. […] Analysis of the tissue sections can be performed using a fluorescence microscope with a UV filter characterized by excitation at 360-370 nm (band pass) and emission at 420 nm (barrier filter) In case that staining of the examined tissue is desired, the following procedures can be applied:
The selectivity of DDC uptake in injured renal tissues was evaluated in this rat model, characterized by selective medullary hypoxic tubular damage. […]

[2] = test system: C26 colon carcinoma tumors; assay: DDC binding versus TUNEL and H&E in colon carcinoma after Doxorubicin; format: in vivo, mice; details: 48 h after Doxorubicin 20 mg/kg; consecutive slides
Procedure: A. Administration of DDC in-vivo: Injection of 200 μl of DDC intravenously. Following 1-2 hours, animal is sacrificed, and the desired organ is placed in a test tube or on a small plate, suitable for liquid nitrogen freezing. The plate is then covered with an aluminum foil, and transferred to liquid nitrogen. Following 5-30 minutes the specimen is being frozen to −80° C. and kept at −80° C. for at least 16 hr. B. Analysis of the Specimen: • a. Whole organ imaging Ex-vivo whole organ fluorescence imaging may be carried out on freshly excised specimen, that can be analyzed under a stereomicroscope (such as Leica MZ FL III, Leica Switzerland). DDC may be visualized using 360cx and >420cm nm filter set. Emitted fluorescence can be imaged using appropriate camera and software, such as a Leica DC 300F Distal camera and images can be processed and analyzed by Leica QWin Lite software. • b. Histological analysis, from the frozen organ or tissue, 4 μm cryosections are prepared on slides. Analysis of the tissue sections can be performed using a fluorescence microscope with a UV filter characterized by excitation at 360-370 nm (band pass) and emission at 420 nm (barrier filter) In case that staining of the examined tissue is desired, the following procedures can be applied: […]

red blood cells (RBC) = assay: Selective binding of DDC to activated red blood cells, flow cytometry; format: cell-based; details: DDC 500 μM
Procedure: Activation of intact RBC, was induced by a combined treatment with N-ethylmaleimide (NEM) and calcium ionophore, in the presence of Ca 2+.
Fresh RBC were obtained, diluted to 0.1 of their initial volume with buffer A (143 mM NaCl; 2 mM KCl; 0.1% Glucose; 10 mM NaH2PO4; pH=7.4), and washed 4 times in the above buffer. Cells were then re-suspended in buffer B (55 mM NaCl; 90 mM KCl, 0.1% glucose, 10 mM HEPES; pH=7.4). These cells were thereafter used as control cells. For activation, the cells were treated for 15-60 min at 37° C. with a combination of 2 mM CaCl, 5 μM of the Calcium ionophore A23187 and 5 mm of NEM. Cells were then washed twice with buffer B containing 0.1% of bovine serum albumin, and finally re-suspended in Buffer B containing 2 mM CaCl2 For examination of binding of DDC to the cells, DDC was dissolved in 0.1M NaPPi, pH=7.4, at a stock concentration of 1 mM. Binding assays were performed at a final concentration of 500 μM, and level of binding was evaluated by flow cytometry.

[3] = test system: cardiomyocytes of the ischemic heart; assay: Detection by DDC of ischemic damage in the heart following ischemia-reperfusion; format: in vivo, mice; details: ischemia 40 minutes, reperfusion 90 minutes; DDC at onset of ischemia
Procedure: Ischemia/Reperfusion was induced in male Swiss mice by ligation and subsequent release of a suture around the left anterior descending coronary artery. Ischemia was for 40 minutes followed by reperfusion of 90 minutes. DDC was injected to the Jugular vein at the onset of ischemia. Uptake of DDC was followed at real time in the beating heart using a Laica stereomycroscope. Pictures were taken at the end point of the reperfusion (90 minutes) and collected by Hamamatsu CCD camera. For inhibition by caspase inhibitors, animals were injected with a pan-Caspase inhibitor in two doses of 10 mg/kg given at the time of reperfusion. […] Figures (C) and (D) Cryosections prepared from the heart that was collected at the end point of the experiments DDC fluorescence can be viewed in single apoptotic cardiomyocites. This example support the role of DDC in detecting ischemic cells in the level of a single apoptotic cell.

CN(C)c1cccc2c(S(=O)(=O)NC(CSSCC(NS(=O)(=O)c3cccc4c(N(C)C)cccc34)C(=O)O)C(=O)O)cccc12 (centres unmarked) [DDC]
DDC distribution pattern versus morphological findings in the contralateral kidney [1]: closely followed the characteristic striped pattern
correlation of DDC staining with H&E and TUNEL staining [2]: highly correlated with both H&E (C) and TUNEL (B) staining
staining of red blood cells with DDC (red blood cells (RBC); RBC activated by NEM, calcium ionophore A23187 and Ca2+): substantial shift to higher fluorescence levels
staining of red blood cells with DDC (red blood cells (RBC); intact RBC): did not stain significantly
uptake of DDC in cardiomyocytes [3]: identified in individual cadiomyocites
